In patent US11884671B2, “Purinone compounds and their use in treating cancer” (ASTRAZENECA AB, priority 2018, dated 2024):

Legend:
DNAPK = DNAPK (Homo sapiens (Human), UniProt P78527); experiment: DNAPK cellular potency assay (DNA-PK cell), pS2056-DNAPK ELISA in irradiated A549 cells; type: cell-based; settings: 8 Gy radiation, arithmetic mean of two or more experiments, read-out: DNA-PK cell pIC50 (converted)
JAK2 = JAK2 (Homo sapiens (Human), UniProt O60674); experiment: JAK2 enzyme assay (Z'-LYTE); type: biochemical; settings: 25 μM ATP, arithmetic mean of two or more experiments; for IC50: read-out: JAK2 enz pIC50 (converted)
JAK3 = JAK3 (Homo sapiens (Human), UniProt P52333); experiment: JAK3 enzyme assay (Z'-LYTE); type: biochemical; settings: 10 μM ATP, arithmetic mean of two or more experiments; for IC50: read-out: JAK3 enz pIC50 (converted)
AURKA (Aurora A) = AURKA (Aurora A) (Homo sapiens (Human), UniProt O14965); experiment: Aurora-A enzyme assay (Z'-LYTE); type: biochemical; settings: 10 μM ATP, arithmetic mean of two or more experiments; for IC50: read-out: AurA enz pIC50 (converted)
AURKB (Aurora B) = AURKB (Aurora B) (Homo sapiens (Human), UniProt Q96GD4); experiment: Aurora-B enzyme assay (Z'-LYTE); type: biochemical; settings: 75 μM ATP, arithmetic mean of two or more experiments; for IC50: read-out: AurB enz pIC50 (converted)
Sequence of AURKB (Aurora B) (Q96GD4 whole entry): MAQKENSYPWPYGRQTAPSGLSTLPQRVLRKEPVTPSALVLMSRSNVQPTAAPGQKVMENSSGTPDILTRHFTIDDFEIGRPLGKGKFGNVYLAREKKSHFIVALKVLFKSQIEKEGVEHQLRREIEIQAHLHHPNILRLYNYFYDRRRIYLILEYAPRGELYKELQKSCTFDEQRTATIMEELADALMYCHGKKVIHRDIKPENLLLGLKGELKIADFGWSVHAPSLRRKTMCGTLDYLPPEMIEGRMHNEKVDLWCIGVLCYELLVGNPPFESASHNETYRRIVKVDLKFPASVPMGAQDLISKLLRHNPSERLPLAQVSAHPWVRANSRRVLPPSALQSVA

Sequence of AURKA (Aurora A) (O14965 whole entry): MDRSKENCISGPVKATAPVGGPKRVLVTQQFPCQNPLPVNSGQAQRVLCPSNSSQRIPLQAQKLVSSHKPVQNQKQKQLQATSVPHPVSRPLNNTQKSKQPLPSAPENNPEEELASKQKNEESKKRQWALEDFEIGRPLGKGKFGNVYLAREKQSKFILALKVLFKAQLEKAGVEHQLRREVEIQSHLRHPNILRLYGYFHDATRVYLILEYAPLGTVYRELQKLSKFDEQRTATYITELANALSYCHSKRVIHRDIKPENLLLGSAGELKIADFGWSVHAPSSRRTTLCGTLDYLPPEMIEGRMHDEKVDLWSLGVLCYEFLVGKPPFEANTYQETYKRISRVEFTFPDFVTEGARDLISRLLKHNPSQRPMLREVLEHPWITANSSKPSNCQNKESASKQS
Sequence of JAK3 (P52333 whole entry): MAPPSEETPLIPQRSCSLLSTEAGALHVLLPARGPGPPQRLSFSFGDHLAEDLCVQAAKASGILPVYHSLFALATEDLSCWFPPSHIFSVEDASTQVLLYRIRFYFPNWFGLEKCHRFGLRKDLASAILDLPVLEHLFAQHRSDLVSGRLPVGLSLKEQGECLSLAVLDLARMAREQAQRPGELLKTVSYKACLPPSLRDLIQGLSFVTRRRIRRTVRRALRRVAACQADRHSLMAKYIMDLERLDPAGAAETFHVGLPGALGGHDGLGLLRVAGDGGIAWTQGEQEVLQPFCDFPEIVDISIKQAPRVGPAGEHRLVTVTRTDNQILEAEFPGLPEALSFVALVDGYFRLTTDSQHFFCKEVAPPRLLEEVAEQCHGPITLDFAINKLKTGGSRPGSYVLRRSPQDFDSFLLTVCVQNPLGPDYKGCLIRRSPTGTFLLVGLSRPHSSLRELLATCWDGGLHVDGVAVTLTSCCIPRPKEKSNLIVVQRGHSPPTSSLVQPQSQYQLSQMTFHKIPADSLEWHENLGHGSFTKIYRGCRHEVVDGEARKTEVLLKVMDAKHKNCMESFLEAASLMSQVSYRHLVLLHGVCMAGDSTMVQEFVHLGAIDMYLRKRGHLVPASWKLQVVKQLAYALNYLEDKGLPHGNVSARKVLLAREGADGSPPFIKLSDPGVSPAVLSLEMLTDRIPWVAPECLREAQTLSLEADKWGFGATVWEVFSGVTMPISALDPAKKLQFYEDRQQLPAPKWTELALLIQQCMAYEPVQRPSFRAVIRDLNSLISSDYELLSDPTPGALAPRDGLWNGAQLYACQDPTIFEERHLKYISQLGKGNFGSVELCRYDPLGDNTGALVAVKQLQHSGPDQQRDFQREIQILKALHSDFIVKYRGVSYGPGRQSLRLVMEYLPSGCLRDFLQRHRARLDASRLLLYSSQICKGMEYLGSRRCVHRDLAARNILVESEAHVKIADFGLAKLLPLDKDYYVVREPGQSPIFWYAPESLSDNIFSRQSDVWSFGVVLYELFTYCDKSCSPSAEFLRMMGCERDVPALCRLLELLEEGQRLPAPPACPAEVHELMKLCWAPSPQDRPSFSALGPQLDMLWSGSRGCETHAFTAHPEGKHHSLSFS
Sequence of JAK2 (O60674 whole entry): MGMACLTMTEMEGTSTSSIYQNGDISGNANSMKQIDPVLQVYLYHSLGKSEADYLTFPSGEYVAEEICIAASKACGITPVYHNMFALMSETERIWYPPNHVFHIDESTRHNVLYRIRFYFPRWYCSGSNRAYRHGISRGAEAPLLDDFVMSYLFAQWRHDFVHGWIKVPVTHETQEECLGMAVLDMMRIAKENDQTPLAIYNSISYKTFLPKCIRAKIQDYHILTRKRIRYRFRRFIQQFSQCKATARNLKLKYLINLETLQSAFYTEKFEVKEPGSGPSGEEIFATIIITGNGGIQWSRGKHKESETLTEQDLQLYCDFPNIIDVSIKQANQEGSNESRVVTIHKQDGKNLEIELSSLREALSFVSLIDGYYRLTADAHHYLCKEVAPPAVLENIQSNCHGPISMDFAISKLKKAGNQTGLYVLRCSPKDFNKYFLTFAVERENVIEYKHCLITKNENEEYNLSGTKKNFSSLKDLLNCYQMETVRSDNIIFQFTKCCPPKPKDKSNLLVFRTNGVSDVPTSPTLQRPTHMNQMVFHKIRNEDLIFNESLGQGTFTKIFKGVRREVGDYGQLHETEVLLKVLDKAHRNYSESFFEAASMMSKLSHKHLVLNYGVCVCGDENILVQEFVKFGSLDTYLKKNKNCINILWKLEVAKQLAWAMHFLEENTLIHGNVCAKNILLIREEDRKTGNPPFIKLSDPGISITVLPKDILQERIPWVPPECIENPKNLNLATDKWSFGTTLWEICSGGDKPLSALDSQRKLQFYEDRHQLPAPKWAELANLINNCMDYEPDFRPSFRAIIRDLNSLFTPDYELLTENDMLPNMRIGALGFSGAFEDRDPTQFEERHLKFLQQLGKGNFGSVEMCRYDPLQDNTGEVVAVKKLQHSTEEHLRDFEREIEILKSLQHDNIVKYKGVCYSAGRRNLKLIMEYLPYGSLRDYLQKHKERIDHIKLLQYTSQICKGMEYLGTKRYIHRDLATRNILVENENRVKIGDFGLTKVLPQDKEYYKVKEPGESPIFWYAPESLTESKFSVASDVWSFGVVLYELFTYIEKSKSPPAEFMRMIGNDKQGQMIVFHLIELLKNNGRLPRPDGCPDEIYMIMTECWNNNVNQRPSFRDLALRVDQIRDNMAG

Compound	IC50 (DNAPK) [nM]	IC50 (JAK2) [nM]	IC50 (JAK3) [nM]	IC50 (AURKA (Aurora A)) [nM]	IC50 (AURKB (Aurora B)) [nM]	JAK2 enz pIC50 (JAK2)	JAK3 enz pIC50 (JAK3)	AurA enz pIC50 (AURKA (Aurora A))	AurB enz pIC50 (AURKB (Aurora B))
Cc1cc2ncccc2cc1Nc1ncc2c(n1)n([C@H]1CC[C@](C)(N)CC1)c(=O)n2C [Example 40, 9-((1r,4r)-4-amino-4-methylcyclohexyl)-7-methyl-2-((7-methylquinolin-6-yl)amino)-7,9-dihydro-8H-purin-8-one]	158	> 10000	> 7940	> 10000	> 10000	–	–	–	–
Cc1cc2ncccc2cc1Nc1ncc2c(n1)n([C@H]1CC[C@@H](O)CC1)c(=O)n2C [Example 11, 9-((1s,4s)-4-hydroxycyclohexyl)-7-methyl-2-((7-methylquinolin-6-yl)amino)-7,9-dihydro-8H-purin-8-one]	20	> 10000	> 10000	> 10000	> 10000	–	–	–	–
Cc1cnc2cc(C)c(Nc3ncc4c(n3)n(C3CCOCC3)c(=O)n4C)cc2n1 [Example 34, 2-((3,7-dimethylquinoxalin-6-yl)amino)-7-methyl-9-(tetrahydro-2H-pyran-4-yl)-7,9-dihydro-8H-purin-8-one]	31.6	> 10000	> 10000	> 10000	> 10000	–	–	–	–
Cc1cc2nnccc2cc1Nc1ncc2c(n1)n([C@H]1CCCOC1)c(=O)n2C [Example 27, (S)-7-methyl-2-((7-methylcinnolin-6-yl)amino)-9-(tetrahydro-2H-pyran-3-yl)-7,9-dihydro-8H-purin-8-one]	12.6	–	–	–	–	<5	<5	<5	<5
COCCN1CCC(n2c(=O)n(C)c3cnc(Nc4cc5cccnc5cc4C)nc32)CC1 [Example 49, 9-(1-(2-methoxyethyl)piperidin-4-yl)-7-methyl-2-((7-methylquinolin-6-yl)amino)-7,9-dihydro-8H-purin-8-one]	251	–	–	–	–	<5	<5	<5	<5
Cc1cc2nccnc2cc1Nc1ncc2c(n1)n([C@@H]1CCOC1)c(=O)n2C [Example 24, (R)-7-methyl-2-((7-methylquinoxalin-6-yl)amino)-9-(tetrahydrofuran-3-yl)-7,9-dihydro-8H-purin-8-one]	79.4	–	–	–	–	<5	<5	<5	<5
COc1ccnc2cc(C)c(Nc3ncc4c(n3)n([C@H]3CC[C@H](O)CC3)c(=O)n4C)cc12 [Example 9, 9-((1r,4r)-4-hydroxycyclohexyl)-2-((4-methoxy-7-methylquinolin-6-yl)amino)-7-methyl-7,9-dihydro-8H-purin-8-one]	7.94	–	–	–	–	<5	<5	<5.1	<5
Cc1cc2nccnc2cc1Nc1ncc2c(n1)n([C@]1(C)CC[C@H](O)CC1)c(=O)n2C [Example 20, 9-((1s,4s)-4-hydroxy-1-methylcyclohexyl)-7-methyl-2-((7-methylquinoxalin-6-yl)amino)-7,9-dihydro-8H-purin-8-one]	20	–	–	–	–	<5	<5	<5	<5
CCN1CCC(n2c(=O)n(C)c3cnc(Nc4cc5cccnc5cc4C)nc32)CC1 [Example 50, 9-(1-ethylpiperidin-4-yl)-7-methyl-2-((7-methylquinolin-6-yl)amino)-7,9-dihydro-8H-purin-8-one]	398	–	–	–	–	<5	<5	<5	<5
CC(=O)N1CCC(n2c(=O)n(C)c3cnc(Nc4cc5nccnc5cc4C)nc32)CC1 [Example 2, 9-(1-acetylpiperidin-4-yl)-7-methyl-2-((7-methylquinoxalin-6-yl)amino)-7,9-dihydro-8H-purin-8-one]	50.1	–	–	–	–	<5	<5	<5	<5
Cc1cc2ncccc2cc1Nc1ncc2c(n1)n([C@@H]1CCNC[C@@H]1F)c(=O)n2C [Example 38, 9-((3S,4R)-3-fluoropiperidin-4-yl)-7-methyl-2-((7-methylquinolin-6-yl)amino)-7,9-dihydro-8H-purin-8-one]	3160	–	–	–	–	<5	<5	<5	<5
Cc1cc2nnccc2cc1Nc1ncc2c(n1)n([C@H]1CC[C@H](O)CC1)c(=O)n2C [Example 7, 9-((1r,4r)-4-hydroxycyclohexyl)-7-methyl-2-((7-methylcinnolin-6-yl)amino)-7,9-dihydro-8H-purin-8-one]	50.1	–	–	–	–	<5	<5	<5	<5
